The source of these data is article PMC9753400, “Conformational alteration in glycan induces phospholipase Cβ1 activation and angiogenesis” (Journal of Biomedical Science, 2022).

The target in assay [1] is T1, TRAX (translin-associated factor X) (Homo sapiens, UniProt Q99598).
T1 construct: gene TSNAX; full-length, cDNA from HUVEC mRNA, pET-21d, nine-histidine tag (text says N-terminal; His codons printed in the R'-primer), expressed in E. coli BL21 (DE3), HisTrap / DEAE / SP-Sepharose; immobilised on CM5 chip
T1 sequence (Q99598 1-290): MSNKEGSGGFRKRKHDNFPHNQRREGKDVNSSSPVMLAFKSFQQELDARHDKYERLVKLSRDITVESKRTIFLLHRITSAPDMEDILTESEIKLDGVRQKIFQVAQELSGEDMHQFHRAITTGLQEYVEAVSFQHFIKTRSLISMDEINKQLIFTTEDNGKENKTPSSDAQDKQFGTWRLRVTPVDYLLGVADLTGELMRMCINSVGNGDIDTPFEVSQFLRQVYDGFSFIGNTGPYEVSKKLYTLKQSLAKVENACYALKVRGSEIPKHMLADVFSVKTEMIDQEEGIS
Briefly: SPR (Biacore X), TRAX amine-coupled to CM5 chip. The format is binding. The conditions noted are these: HBS-P running buffer, GSL diluted from methanol stock. (In general: Surface plasmon resonance follows binding to a sensor surface in real time, without labels.)

Assay [2] addresses T2, recombinant human full-length translin-associated factor X (TRAX) (human, UniProt Q99598 1-290).
T2 construct: translin-associated factor X (TRAX), human, full length, cDNA from HUVECs, in pET-21d; Removal of the tag is not mentioned; also called recombinant TRAX; wild-type TRAX; source: E. coli BL21 (DE3) pLys, purified (HisTrap FF, DEAE-Sepharose, SP-Sepharose)
T2 sequence (looked up): T1 sequence (Q99598 1-290)
Nature of the assay: SPR; Biacore X; TRAX amine-coupled to CM5 chip (about 2500 RU), PLCβ1-C flowed over, HBS-P running buffer; competition runs with PLCβ1-C 360 nM plus 0, 1 or 9 μM GHCer. Conditions: both partners purified.

Broadly, the Kd is the concentration at which binding is half-saturated. “Fucα1 → 2Galβ1 → 3GalNAcβ1 → 3Galα1 → 4Galβ1 → 4Glcβ1-ceramide [GHCer]” had a Kd in assay [1] (competes with PLCβ1 C-terminal domain) of 0.0409 µM.

As for “Galβ1 → 3GalNAcβ1 → 3Galα1 → 4Galβ1 → 4Glcβ1-ceramide [SSEA3Cer]”, the Kd in assay [1] (tested at 10 μM) is above 10 µM.

B1: recombinant C-terminal domain of PLCβ1 (PLCβ1-C), amino acids 890 to 1161 (domain or fragment, human, UniProt Q9NQ66 890-1161, looked up)
chain: APAKTEDLIQSVLTEVEAQTIEELKQQKSFVKLQKKHYKEMKDLVKRHHKKTTDLIKEHTTKYNEIQNDYLRRRAALEKSAKKDSKKKSEPSSPDHGSSTIEQDLAALDAEMTQKLIDLKDKQQQQLLNLRQEQYYSEKYQKREHIKLLIQKLTDVAEECQNNQLKKLKEICEKEKKELKKKMDKKRQEKITEAKSKDKSQMEEEKTEMIRSYIQEVVQYIKRLEEAQSKRQEKLVEKHKEIRQQILDEKPKLQVELEQEYQDKFKRLPLEI
notes: phospholipase C β1 (PLCβ1), human, C-terminal domain, residues 890-1161, cDNA from HUVECs, in pET-21d; Removal of the tag is not mentioned; also called recombinant C-terminus of PLCβ1; source: E. coli BL21 (DE3) pLys, purified (HisTrap FF, DEAE-Sepharose, SP-Sepharose)
In the case of B1, the dissociation constant Kd in assay [2] was around 7.5 µM.
